Laboratory results as given in PubChem BioAssay AID330 (DTP/NCI, 2004).
“And” between values parts separate entries of the source, which are not always exact repeats. Equal values may be shown once. Inconclusive results and toxic doses are left out. Rule for the calls: active = survival T/C of 150% or more; inactive = T/C below 125% in these data.

Tested on: P388 leukemia ip, CD2F1 mice, survival T/C
Assay: NCI In Vivo Anticancer Drug Screen. Data for tumor model P388 Leukemia (intraperitoneal) in CD2F1 (CDF1) mice
Details: endpoint: median survival time, higher = longer survival
In short: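 Mice carrying the transplanted tumor received test compound or vehicle. Survival was recorded in each group, and the value is the treated-group measurement divided by that of the vehicle-treated control group.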

[1] = dose: 50.0 mg/kg/injection, schedule: Q01DX005 (ip), vehicle: saline
[2] = dose: 100.0 mg/kg/injection, schedule: Q01DX005 (ip), vehicle: saline
[3] = dose: 25.0 mg/kg/injection, schedule: Q01DX009 (ip), vehicle: saline
[4] = dose: 50.0 mg/kg/injection, schedule: Q01DX009 (ip), vehicle: saline
[5] = dose: 100.0 mg/kg/injection, schedule: Q01DX009 (ip), vehicle: saline
[6] = dose: 50.0 mg/kg/injection, schedule: Q01DX005 (ip), vehicle: Klucel (hydroxypropylcellulose) (HPC)
[7] = dose: 100.0 mg/kg/injection, schedule: Q01DX005 (ip), vehicle: Klucel (hydroxypropylcellulose) (HPC)
[8] = dose: 200.0 mg/kg/injection, schedule: Q01DX005 (ip), vehicle: Klucel (hydroxypropylcellulose) (HPC)
[9] = dose: 60.0 mg/kg/injection, schedule: Q01DX005 (ip), vehicle: saline with Tween-80
[10] = dose: 120.0 mg/kg/injection, schedule: Q01DX005 (ip), vehicle: saline with Tween-80
[11] = dose: 50.0 mg/kg/injection, schedule: Q01DX005 (ip), vehicle: saline with Tween-80

Measured: T/C

C=C1CC2(OC1=O)C1CC3CC(C1)CC2C3 (centres undefined)
inactive: dose: 100.0 mg/kg/injection, schedule: Q04DX002 (ip), vehicle: saline 99 % of control | dose: 200.0 mg/kg/injection, schedule: Q04DX002 (ip), vehicle: saline 98 % of control | dose: 400.0 mg/kg/injection, schedule: Q04DX002 (ip), vehicle: saline 99 % of control

C=CCCCN1C(=O)CCC1=O
inactive: [1] 105 % of control | [2] 97 % of control | dose: 200.0 mg/kg/injection, schedule: Q01DX005 (ip), vehicle: saline 100 % of control

C/C(COc1ccc([N+](=O)[O-])cc1)=N/NS(=O)(=O)c1cc(Cl)c(Cl)cc1Cl
inactive: dose: 12.5 mg/kg/injection, schedule: Q01DX009 (ip), vehicle: saline 101 % of control | [3] 102 % of control | [4] 99 % of control and 87 % of control

O=[Se](O)O
inactive: dose: 0.78 mg/kg/injection, schedule: Q01DX005 (ip), vehicle: water 106 % of control and 110 % of control | dose: 1.56 mg/kg/injection, schedule: Q01DX005 (ip), vehicle: water 114 % of control and 119 % of control | dose: 3.12 mg/kg/injection, schedule: Q01DX005 (ip), vehicle: water 114 % of control | dose: 6.25 mg/kg/injection, schedule: Q01DX005 (ip), vehicle: water 117 % of control

COC(=O)C1NC(C)(C(=O)OC)C2C(=O)NC(=O)C12 (centres undefined)
inactive: dose: 100.0 mg/kg/injection, schedule: Q04DX002 (ip), vehicle: Klucel (hydroxypropylcellulose) (HPC) 95 % of control | dose: 200.0 mg/kg/injection, schedule: Q04DX002 (ip), vehicle: Klucel (hydroxypropylcellulose) (HPC) 93 % of control | dose: 400.0 mg/kg/injection, schedule: Q04DX002 (ip), vehicle: Klucel (hydroxypropylcellulose) (HPC) 88 % of control

CC(=NCC(=O)O)c1ccccc1
inactive: [3] 104 % of control | [4] 111 % of control | [5] 109 % of control

CCc1nc(N)nc(N)c1-c1ccc(N(C)Cc2ccccc2)c(N)c1
inactive: [6] 96 % of control | [7] 93 % of control | [8] 103 % of control

Cc1cccc(NC(=O)Oc2ccc(Cl)cc2C(=O)c2ccccc2)c1
inactive: [9] 97 % of control | [10] 98 % of control | dose: 240.0 mg/kg/injection, schedule: Q01DX005 (ip), vehicle: saline with Tween-80 105 % of control

N#Cc1cc(Br)ccc1N
inactive: [4] 105 % of control | [5] 107 % of control | dose: 200.0 mg/kg/injection, schedule: Q01DX009 (ip), vehicle: saline 96 % of control

COc1ccc(-c2nc(C)cc3cc(OC)c(OC)cc23)cc1OC
inactive: dose: 12.5 mg/kg/injection, schedule: Q01DX009 (ip), vehicle: water 98 % of control | dose: 25.0 mg/kg/injection, schedule: Q01DX009 (ip), vehicle: water 100 % of control | dose: 50.0 mg/kg/injection, schedule: Q01DX009 (ip), vehicle: water 100 % of control | dose: 100.0 mg/kg/injection, schedule: Q01DX009 (ip), vehicle: water 100 % of control

CC1=C(C(=O)O)CCC1(C)C
inactive: dose: 100.0 mg/kg/injection, schedule: Q04DX002 (ip), vehicle: saline with Tween-80 98 % of control | dose: 200.0 mg/kg/injection, schedule: Q04DX002 (ip), vehicle: saline with Tween-80 101 % of control | dose: 400.0 mg/kg/injection, schedule: Q04DX002 (ip), vehicle: saline with Tween-80 104 % of control

Cc1cc(N=Nc2ccc(O)cc2C(=O)O)c([N+](=O)[O-])cc1C
inactive: dose: 50.0 mg/kg/injection, schedule: Q01DX009 (ip), vehicle: Klucel (hydroxypropylcellulose) (HPC) 101 % of control | dose: 100.0 mg/kg/injection, schedule: Q01DX009 (ip), vehicle: Klucel (hydroxypropylcellulose) (HPC) 111 % of control | dose: 200.0 mg/kg/injection, schedule: Q01DX009 (ip), vehicle: Klucel (hydroxypropylcellulose) (HPC) 104 % of control

CCS/C(=C/[P+](c1ccccc1)(c1ccccc1)c1ccccc1)SC
inactive: dose: 6.25 mg/kg/injection, schedule: Q01DX005 (ip), vehicle: saline with Tween-80 101 % of control

NCCC[Se]CC(N)C(=O)O (centres undefined)
inactive: dose: 12.5 mg/kg/injection, schedule: Q01DX005 (ip), vehicle: saline 100 % of control | dose: 25.0 mg/kg/injection, schedule: Q01DX005 (ip), vehicle: saline 102 % of control | dose: 25.0 mg/kg/injection, schedule: Q04DX003 (ip), vehicle: saline 95 % of control | [1] 104 % of control | dose: 50.0 mg/kg/injection, schedule: Q04DX003 (ip), vehicle: saline 111 % of control | [2] 102 % of control | dose: 100.0 mg/kg/injection, schedule: Q04DX003 (ip), vehicle: saline 110 % of control and 119 % of control

CCNc1nn2ccccc2c1/C=C(/C#N)C(=O)OCC
inactive: dose: 25.0 mg/kg/injection, schedule: Q01DX001 (ip), vehicle: saline with Tween-80 94 % of control | dose: 50.0 mg/kg/injection, schedule: Q01DX001 (ip), vehicle: saline with Tween-80 91 % of control | dose: 100.0 mg/kg/injection, schedule: Q01DX001 (ip), vehicle: saline with Tween-80 91 % of control | dose: 200.0 mg/kg/injection, schedule: Q01DX001 (ip), vehicle: saline with Tween-80 91 % of control

CC(=O)C(C)C(C)=NCCN=C(C)C(C)C(C)=O (centres undefined)
inactive: [6] 110 % of control | [7] 110 % of control | [8] 103 % of control

Nc1nnc2nc(CC(=O)c3ccccc3)c(CC(=O)c3ccccc3)nn12
inactive: dose: 60.0 mg/kg/injection, schedule: Q01DX005 (ip), vehicle: saline 95 % of control | dose: 120.0 mg/kg/injection, schedule: Q01DX005 (ip), vehicle: saline 94 % of control | dose: 240.0 mg/kg/injection, schedule: Q01DX005 (ip), vehicle: saline 100 % of control

OCC1OC2OC3C(CO)OC(OC4C(CO)OC(OC5C(CO)OC(OC6C(CO)OC(OC7C(CO)OC(OC8C(CO)OC(OC1C(O)C2O)C(O)C8O)C(O)C7O)C(O)C6O)C(O)C5O)C(O)C4O)C(O)C3O (centres undefined)
inactive: [4] 100 % of control | [5] 94 % of control

N#CN=[N+]([O-])c1ccccc1[N+](=O)[O-]
inactive: dose: 6.25 mg/kg/injection, schedule: Q04DX003 (ip), vehicle: Klucel (hydroxypropylcellulose) (HPC) 110 % of control | dose: 12.5 mg/kg/injection, schedule: Q04DX003 (ip), vehicle: Klucel (hydroxypropylcellulose) (HPC) 106 % of control

CCCOc1cc2c(cc1C(C)c1ccc(OCC)cc1)OCO2 (centres undefined)
inactive: dose: 12.5 mg/kg/injection, schedule: Q01DX005 (ip), vehicle: saline with Tween-80 100 % of control | dose: 25.0 mg/kg/injection, schedule: Q01DX005 (ip), vehicle: saline with Tween-80 110 % of control | [11] 115 % of control | [9] 105 % of control | [10] 113 % of control

CC(=O)c1ccc(-n2c(=O)n(-c3ccccc3)c3nc4cc(C)ccc4nc32)cc1
inactive: [11] 90 % of control | dose: 100.0 mg/kg/injection, schedule: Q01DX005 (ip), vehicle: saline with Tween-80 92 % of control | dose: 200.0 mg/kg/injection, schedule: Q01DX005 (ip), vehicle: saline with Tween-80 98 % of control

COC(=O)CCCC1=NC2=CC=CC3=NC(C)=NC(=N1)N23
inactive: dose: 12.5 mg/kg/injection, schedule: Q01DX009 (ip), vehicle: saline with Tween-80 123 % of control | dose: 25.0 mg/kg/injection, schedule: Q01DX009 (ip), vehicle: saline with Tween-80 114 % of control | dose: 50.0 mg/kg/injection, schedule: Q01DX009 (ip), vehicle: saline with Tween-80 98 % of control | dose: 100.0 mg/kg/injection, schedule: Q01DX009 (ip), vehicle: saline with Tween-80 104 % of control

Cc1ccc(Cl)c(S(=O)(=O)F)c1
inactive: dose: 200.0 mg/kg/injection, schedule: Q01DX009 (ip), vehicle: saline with Tween-80 104 % of control | dose: 400.0 mg/kg/injection, schedule: Q01DX009 (ip), vehicle: saline with Tween-80 100 % of control
